The nature of data set [1]: Fraction unbound in CD1 mouse plasma at 1 uM incubated for 16 hrs by LC-MS/MS based equilibrium dialysis method. It is filed as ADME, cell-free. On the technique in general: In equilibrium dialysis free small molecules cross a membrane that holds back macromolecules.
Data set [2] addresses Histone-lysine N-methyltransferase EZH2 (Homo sapiens) (UniProt Q15910). Nature of the data set: Inhibition of EZH2 (unknown origin) at 10 uM relative to control.
In data set [3] the target is T1, Histone-lysine N-methyltransferase EZH1 (Homo sapiens) (UniProt Q92800).
T1 sequence (whole entry): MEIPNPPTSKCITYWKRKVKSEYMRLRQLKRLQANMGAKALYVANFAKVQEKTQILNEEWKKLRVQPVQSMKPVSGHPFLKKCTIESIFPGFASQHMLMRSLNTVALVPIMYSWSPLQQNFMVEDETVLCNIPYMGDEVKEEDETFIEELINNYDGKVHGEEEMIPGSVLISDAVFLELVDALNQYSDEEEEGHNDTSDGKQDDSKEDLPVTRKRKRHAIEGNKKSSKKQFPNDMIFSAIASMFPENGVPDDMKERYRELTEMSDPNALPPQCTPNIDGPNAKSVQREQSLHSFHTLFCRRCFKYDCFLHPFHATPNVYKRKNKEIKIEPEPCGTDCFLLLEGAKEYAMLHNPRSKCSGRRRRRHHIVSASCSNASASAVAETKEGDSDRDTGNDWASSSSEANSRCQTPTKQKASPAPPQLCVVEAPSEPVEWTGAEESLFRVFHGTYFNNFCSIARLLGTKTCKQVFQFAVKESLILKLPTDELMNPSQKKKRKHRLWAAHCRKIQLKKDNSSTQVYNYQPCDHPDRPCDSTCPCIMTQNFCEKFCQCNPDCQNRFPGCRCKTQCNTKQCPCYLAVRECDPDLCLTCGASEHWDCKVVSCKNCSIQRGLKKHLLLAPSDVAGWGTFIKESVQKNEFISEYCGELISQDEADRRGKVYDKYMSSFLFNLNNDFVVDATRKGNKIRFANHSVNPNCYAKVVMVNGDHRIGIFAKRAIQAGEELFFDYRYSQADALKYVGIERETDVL
Briefly: Inhibition of EZH1 (unknown origin) at 10 uM relative to control.

The target in data set [4] is T2, Histone-lysine N-methyltransferase NSD3 (Homo sapiens) (UniProt Q9BZ95).
T2 sequence (whole entry): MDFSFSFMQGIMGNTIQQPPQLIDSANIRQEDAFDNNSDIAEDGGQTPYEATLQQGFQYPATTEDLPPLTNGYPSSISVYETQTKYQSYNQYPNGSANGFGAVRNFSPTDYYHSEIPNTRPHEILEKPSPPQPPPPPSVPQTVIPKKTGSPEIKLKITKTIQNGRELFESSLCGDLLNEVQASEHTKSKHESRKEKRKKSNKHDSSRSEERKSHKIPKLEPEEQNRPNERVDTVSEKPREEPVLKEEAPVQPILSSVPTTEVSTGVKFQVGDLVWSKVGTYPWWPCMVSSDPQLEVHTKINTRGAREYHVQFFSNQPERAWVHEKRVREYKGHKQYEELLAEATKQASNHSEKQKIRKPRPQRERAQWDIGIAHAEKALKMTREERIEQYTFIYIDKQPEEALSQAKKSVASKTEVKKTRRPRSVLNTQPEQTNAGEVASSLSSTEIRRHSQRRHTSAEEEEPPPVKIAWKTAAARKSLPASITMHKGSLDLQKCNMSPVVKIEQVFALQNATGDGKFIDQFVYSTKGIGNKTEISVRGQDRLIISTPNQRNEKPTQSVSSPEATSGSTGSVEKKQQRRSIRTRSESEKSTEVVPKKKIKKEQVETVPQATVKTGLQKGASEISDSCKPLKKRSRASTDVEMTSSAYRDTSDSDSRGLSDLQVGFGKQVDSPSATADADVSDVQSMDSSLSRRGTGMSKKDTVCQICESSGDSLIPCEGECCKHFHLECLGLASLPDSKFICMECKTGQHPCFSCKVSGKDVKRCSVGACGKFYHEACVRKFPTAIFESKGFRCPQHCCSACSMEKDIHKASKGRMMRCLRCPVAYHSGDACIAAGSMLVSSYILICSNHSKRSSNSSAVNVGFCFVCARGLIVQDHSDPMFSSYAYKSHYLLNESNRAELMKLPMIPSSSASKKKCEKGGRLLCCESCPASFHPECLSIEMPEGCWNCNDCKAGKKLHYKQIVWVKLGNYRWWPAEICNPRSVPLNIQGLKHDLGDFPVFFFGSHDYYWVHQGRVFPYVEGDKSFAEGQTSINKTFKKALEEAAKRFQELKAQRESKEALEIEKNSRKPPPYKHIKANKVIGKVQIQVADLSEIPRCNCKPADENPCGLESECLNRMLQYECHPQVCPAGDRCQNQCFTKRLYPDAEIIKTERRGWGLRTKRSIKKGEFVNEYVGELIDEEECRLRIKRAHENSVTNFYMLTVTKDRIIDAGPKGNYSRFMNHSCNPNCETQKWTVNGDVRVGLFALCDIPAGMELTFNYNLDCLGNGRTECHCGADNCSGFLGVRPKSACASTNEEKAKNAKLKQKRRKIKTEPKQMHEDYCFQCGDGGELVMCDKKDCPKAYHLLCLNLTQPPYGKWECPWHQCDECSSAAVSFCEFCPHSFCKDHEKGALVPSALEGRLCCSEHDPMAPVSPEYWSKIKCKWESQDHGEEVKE
Briefly: Inhibition of WHSC1L1 (unknown origin) at 10 uM relative to control.

Sequence of Histone-lysine N-methyltransferase EZH2 (Homo sapiens) (Q15910 whole entry, looked up): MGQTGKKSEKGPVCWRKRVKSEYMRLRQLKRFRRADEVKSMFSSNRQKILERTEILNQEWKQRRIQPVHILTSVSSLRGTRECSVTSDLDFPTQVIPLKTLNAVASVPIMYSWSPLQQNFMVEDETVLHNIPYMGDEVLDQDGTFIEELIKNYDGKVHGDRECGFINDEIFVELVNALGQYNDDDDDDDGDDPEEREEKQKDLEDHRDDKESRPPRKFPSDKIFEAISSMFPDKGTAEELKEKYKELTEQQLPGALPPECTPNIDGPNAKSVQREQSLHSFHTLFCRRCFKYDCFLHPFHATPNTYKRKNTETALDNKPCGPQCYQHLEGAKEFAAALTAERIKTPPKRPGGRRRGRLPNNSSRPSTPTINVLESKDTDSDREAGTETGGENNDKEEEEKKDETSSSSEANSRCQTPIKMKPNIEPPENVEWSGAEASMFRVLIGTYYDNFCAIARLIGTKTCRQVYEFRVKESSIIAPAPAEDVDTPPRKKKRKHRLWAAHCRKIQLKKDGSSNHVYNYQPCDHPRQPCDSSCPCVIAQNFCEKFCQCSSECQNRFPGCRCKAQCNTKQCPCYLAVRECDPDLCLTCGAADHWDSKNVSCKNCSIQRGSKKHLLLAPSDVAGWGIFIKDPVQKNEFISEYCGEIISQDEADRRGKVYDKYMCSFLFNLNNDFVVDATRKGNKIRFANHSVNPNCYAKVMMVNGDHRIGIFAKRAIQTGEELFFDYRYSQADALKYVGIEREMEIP

In turn, `O=C1Cc2cc(C(=O)N[C@H]3C[C@H]4CC[C@@H](C3)N4S(=O)(=O)N3CCC(NCc4ccccc4)CC3)c(Cl)cc2N1` showed a fraction unbound at 16 h, 1 µM in data set [1] of 0.32. In addition, the inhibition in data set [2], in data set [3] and in data set [4] was < 30% each time.
`O=C1Cc2cc(C(=O)N[C@H]3C[C@H]4CC[C@@H](C3)N4S(=O)(=O)CC3CCN(CCCC(F)(F)F)CC3)c(Cl)cc2N1` registered a fraction unbound at 16 h, 1 µM in data set [1] of 0.53. In addition, the inhibition in data set [2], in data set [3] and in data set [4] was < 30% throughout.

Usually fraction unbound stands for free concentration divided by total concentration. A higher fraction unbound goes with weak binding. For orientation: inhibition means the change of the read-out against control, counted positive when it falls. A low value points to a weak effect.

Values taken from ChEMBL document CHEMBL3797202, “Novel Oxindole Sulfonamides and Sulfamides: EPZ031686, the First Orally Bioavailable Small Molecule SMYD3 Inhibitor” (ACS Med Chem Lett, 2016).
